# From patent publication US8044018B2, “Reagents and methods for smooth muscle therapies” (Arizona Board of Regents, priority 2008, dated 2011)
# Columns and labels:
# [1] = test system: Intestinal smooth muscle from the tinea coli; assay: Muscle bath: pig tinea coli, contractile response to carbachol; details: peptide in a dextran gel, 1 mM final concentration; then treated with carbachol
# Method: Intestinal smooth muscle was obtained from the tinea coli of a pig. These muscles were equilibrated in a muscle bath as described in example 6. The muscles produced transient contractions in response to high extracellular potassium chloride (KCl 110 mM) and in response to carbachol (10^−6 M). The muscles were then treated with a dextran gel containing the PTD-phosphopeptide analogues of HSP20 (NH2-βAYARRAAARQARAWLRRAS*APLPGLK-COOH, 1 mM final concentration) (SEQ ID NO:307) and treated with carbachol.
# [2] = test system: corpra cavernosal smooth muscles; assay: Muscle bath: rabbit corpra cavernosal smooth muscle pre-contracted with norepinephrine; parameters: species or system New Zealand White rabbits
# Method: (§1) Tracheal and corpra cavernosal smooth muscles were obtained from a New Zealand White rabbits after sacrifice. The muscles were equilibrated in a muscle bath as described in example 6. The tracheal muscles were pre-contracted with carbachol and the corpra cavernosal smooth muscles were pre-contracted with norepinephrine. The muscles were then treated with the PTD-phosphopeptide analogues of HSP20 (NH2-βAYARRAAARQARAWLRRAS*APLPGLK-COOH) (SEQ ID NO:307).
# human saphenous vein = assay: Intimal hyperplasia in cultured human saphenous vein segments, morphometric intimal area; details: 14 days; media with 30% fetal bovine serum; versus serum alone or scrambled analogue
# Method: Segments of human saphenous vein were cultured in media containing 30% fetal bovine serum.
# Tracheal smooth muscles = assay: Muscle bath: rabbit tracheal smooth muscle pre-contracted with carbachol; parameters: species or system New Zealand White rabbits
# Method: as §1
# A10 cells [3] = assay: Boyden chamber migration assay; type: cell-based
# porcine coronary artery = assay: Muscle bath: serotonin pre-contracted rings of porcine coronary artery, endothelium not denuded; details: cumulative doses added every 10 minutes; n=5; FIG. 4
# Method: Rings of porcine coronary artery in which the endothelium was not denuded, were suspended in a muscle bath containing bicarbonate buffer (120 mM NaCl, 4.7 mM KCl, 1.0 mM MgSO4, 1.0 mM NaH2PO4, 10 mM glucose, 1.5 mM CaCl2, and 25 mM […], pH 7.4), equilibrated with 95% O2/5% CO2, at 37° C. at one gram of tension for 2 hours. The muscles were pre-contracted with serotonin ([…] for 10 minutes) and cumulative doses of PTD-pHSP20 (NH2-βAYARRAAARQARAWLRRAS*APLPGLK-COOH, closed circles) (SEQ ID NO:307) or PTD-scrambled-pHSP20 (NH2-βAYARRAAARQARAPRKS*LWALGRPLA-COOH open circles) (SEQ ID NO:308) were added every 10 minutes (FIG. 4). The percentage of relaxation is depicted as a percentage of the maximal serotonin contraction (n=5, *=p<0.05 compared to 0 peptide added). The concentrations of peptide used are depicted on the x axis. Representative rings were treated with peptides (1 mM final concentration) linked to FITC (15 minutes at 37° C.), fixed in 4% paraformaldehyde and examined under fluorescence microscopy (40× magnification).
# [4] = test system: Bovine aortic endothelial cells; assay: Focal adhesion disassembly, interference reflection microscopy; type: cell-based; details: HSP20 peptides 10 uM for 30 minutes; serum starved one hour
# Method: Bovine aortic endothelial cells were plated on glass coverslips (80K-100K cells) in DMEM plus 10% FBS over night (24 wells plate). The cells were serum starved (no serum) for one hour and incubated in the presence of the peptide analogues of HSP20 [NH2-βAYARRAAARQARAWLRRAS*APLPGLK-COOH-pHSP20 (10 uM) (SEQ ID NO:307) or scrambled analogues of HSP20 [NH2-βAYARRAAARQARAPRKS*LWALGRPLA-COOH-scHSP20 (10 uM)] (SEQ ID NO:308) for 30 minutes. The cells were fixed with 3% glutaraldehyde and the number of focal adhesions was detected with interference reflection microscopy. The Hep I peptide was used as a positive control. This peptide binds to the heparin binding site of thrombospondin in induces focal adhesion disassembly. […] The results are illustrated in FIG. 7.
# A10 cells [5] = assay: Scratch wound migration assay; type: cell-based; details: 50 μM; 10% FBS media; 24 hours
# Method: Confluent A10 cells were serum starved (0.5% fetal bovine serum, FBS) for 48 hours. A linear wound was made in the smooth muscle cell monolayer using a rubber scraper and the scratched edges were marked using metal pins.
# [6] = test system: internal anal sphincter smooth muscles; assay: Muscle bath: human internal anal sphincter, tonic sustained contractions; details: 1 mM final concentration; after washout of sodium nitroprusside
# From the text: The internal anal sphincter was obtained from a human pathology specimen after an abdominal perineal resection for cancer. The smooth muscles were equilibrated in a muscle bath as described in example 6. The muscles developed tonic sustained contractions when warmed in the bicarbonate buffer. These contractions relaxed with the addition of the guanylate cyclase activator, sodium nitroprusside (SNP). When the sodium nitroprusside was washed out of the bath, the muscles again contracted spontaneously. The muscles were then treated with the PTD-phosphopeptide analogues of HSP20 (NH2-βAYARRAAARQARAWLRRAS*APLPGLK-COOH, 1 mM final concentration) (SEQ ID NO:307).
# [7] = test system: Human saphenous vein smooth muscles; assay: Muscle bath: human saphenous vein rings, contraction in response to serotonin; details: peptide in 7.5% dextran gel; serotonin 1 uM
# Method: Human saphenous vein was obtained from remnants that were discarded after vascular bypass operations. Rings of the saphenous vein were equilibrated in a muscle bath as described in experiment 4. The rings were treated with a 7.5% dextran gel alone, or a 7.5% dextran gel containing the phosphopeptide analogues of HSP20 (NH2-βAYARRAAARQARAWLRRAS*APLPGLK-COOH) (SEQ ID NO:307). The rings were then treated with serotonin (1 uM). The rings treated with the 7.5% dextran gel alone contracted in response to serotonin.
# A10 cells [8] = assay: Serum-induced proliferation, cell counts; type: cell-based; details: 50 μM in 10% FBS; 24 hours; serum starved 3 days beforehand
# Method: A10 cells were serum starved for 3 days. The cells were then treated with media containing 10% fetal bovine serum, PTD-pHSP20 (NH2-βAYARRAAARQARAWLRRAS*APLPGLK-COOH (SEQ ID NO:307), or PTD-scrambled-pHSP20 (NH2-βAYARRAAARQARAPRKS*LWALGRPLA-COOH (SEQ ID NO:308) (50 μM). After 24 hours cell counts were performed. The number of cells per well in the serum starved plates averaged […] (+/−7.4) compared to 276+/−6.1 in wells containing 10% fetal bovine serum (FBS). In the presence of FBS, the phosphopeptide analogues of HSP20 containing a transduction domain inhibited of smooth muscle proliferation, 149+/−14.6 compared to transduction of the scrambled phosphopeptide analogue of HSP20 (242.3+/−15.3 cells/well). The results of these experiments are illustrated in FIG. 9.
substance,measurement,setting,value
"NH2-βAYARRAAARQARAWLRRAS*APLPGLK-COOH (AYARRAAARQARAWLRRASAPLPGLK; HELM PEPTIDE1{[bAla].Y.A.R.R.A.A.A.R.Q.A.R.A.W.L.R.R.A.[O=C([C@H](COP(=O)(O)O)N[*:1])[*:2]].A.P.L.P.G.L.K}$$$$V2.0; SMILES CC(C)C[C@H](NC(=O)CNC(=O)[C@@H]1CCCN1C(=O)[C@H](CC(C)C)NC(=O)[C@@H]1CCCN1C(=O)[C@H](C)NC(=O)[C@H](COP(=O)(O)O)NC(=O)[C@H](C)NC(=O)[C@H](CCCNC(=N)N)NC(=O)[C@H](CCCNC(=N)N)NC(=O)[C@H](CC(C)C)NC(=O)[C@H](Cc1c[nH]c2ccccc12)NC(=O)[C@H](C)NC(=O)[C@H](CCCNC(=N)N)NC(=O)[C@H](C)NC(=O)[C@H](CCC(N)=O)NC(=O)[C@H](CCCNC(=N)N)NC(=O)[C@H](C)NC(=O)[C@H](C)NC(=O)[C@H](C)NC(=O)[C@H](CCCNC(=N)N)NC(=O)[C@H](CCCNC(=N)N)NC(=O)[C@H](C)NC(=O)[C@H](Cc1ccc(O)cc1)NC(=O)CCN)C(=O)N[C@@H](CCCCN)C(=O)O) [PTD-pHSP20, Phosphopeptide analogue of HSP20 with a protein transduction domain different from TAT]",contractile response to carbachol,[1],significantly attenuated
same,relaxation of pre-contracted muscle,[2],relaxed and spasm was prevented
same,intimal area,human saphenous vein,significant reduction in intimal area
same,relaxation of pre-contracted muscle,Tracheal smooth muscles,relaxed and spasm was prevented
same,migration of A10 cells,A10 cells [3],inhibition of migration
same,relaxation as percentage of the maximal serotonin contraction,porcine coronary artery,relax and prevent spasm
same,focal adhesion disassembly (number of focal adhesions),[4],led to focal adhesion disassembly
same,number of cells migrating into a 1 cm^2 scratched area,A10 cells [5],inhibition of migration
same,relaxation of spontaneous tonic contraction,[6],relaxed and spasm was prevented
same,contraction in response to serotonin,[7],did not contract
same,number of cells per well,A10 cells [8],149+/−14.6 cells/well
